From patent publication US4075341A, “2-Substituted phenyl-5-triazols [5,1-a] isoquinoline compounds” (Gruppo Lepetit S.p.A., priority 1975, dated 1978) come the findings set out here.

Like-named read-outs stand apart in the source and are kept apart here. A value given as a limit tells only on which side of the number the result lay.

Series [1] relates to female beagle dogs. Briefly: anti-fertility activity in pregnant female beagle dogs. It is filed as in vivo. To be noted: Canis lupus familiaris, sc; single subcutaneous dose on 20th day of pregnancy, opened on 35th day; read-out: Minimal effective doses (100% effectiveness, absence of live fetuses in 100% of the animals). The text has this: In performing experiments with dogs, female beagle dogs weighing approximately 10 kg. are mated and on the 20th day of pregnancy the animals are given single subcutaneous doses of the compounds that were active in both the rat and the hamster. On the 35th day of pregnancy, the animals are surgically opened and the uteri are examined for presence of fetuses, placental tissue etc. Following Table III reports the minimal doses of representative compounds showing a 100% effectiveness (absence of live fetuses in 100% of the animals).

The test system of series [2] is female Syrian golden hamsters. Briefly: anti-fertility activity in pregnant female Syrian golden hamsters. It is filed as in vivo. The arrangement: key to anti-fertility activity (active according to criteria): active: a reduction of live fetuses in at least 60% of the treated animals and the presence of implantation sites proves the animal to have been pregnant. To be noted: for anti-fertility activity (active according to criteria): 10 mg./kg. s.c. daily for 5 days, days 4-8 of pregnancy, autopsy day 14; for ED50: Mesocricetus auratus, sc, read-out: ED50 (dose showing 100% effectiveness in 50% of the treated animals). Here is the method:
Representative experiments for assessing anti-fertility activity are carried out with female Syrian golden hamsters weighing 100 to 130 g. The animals are mated and the presence of sperm in the vagina is taken as evidence of mating. The day sperm is detected is considered day one of pregnancy, since in our laboratories and those of other investigators 90 to 100% of animals that mate as evidenced by vaginal sperm are pregnant. Pregnancy is later confirmed at the time of autopsy by presence of fetuses or implantation sites in the uterus. Even if an animal aborts the fetus, implantation scars still remain as evidence that the animal had been pregnant. Test compounds dissolved or suspended in sesame oil are administered subcutaneously in doses of 10 mg./kg. daily for 5 days beginning on day 4 of pregnancy (days 4-8). The animals are autopsied on day 14 of pregnancy and the uteri are examined for evidence of pregnancy (implantation sites, fetal resorptions or live fetuses), hemorrage, and evidence of abnormalities of the uterus, placenta or fetuses. A compound is considered to be active if there is a reduction of live fetuses in at least 60% of the treated animals and the presence of implantation sites proves the animal to have been pregnant. […] The compounds are then studied for dose-activity relationship and toxicity or other biological activities. Compounds that show 100% effectiveness (absence of live fetuses in 100% of animals) with minimal side effects or toxicity are studied in depth.
The ED50 values identify the dose levels which show 100% effectiveness (defined as above) in 50% of the treated animals.

A short description of series [3]: acute toxicity LD50 in mice. To be noted: mouse, in vivo, ip; i.p. in mice.
Series [4] has as its system conditioned rats. Briefly: secondary conditioned avoidance response test (anti-anxiety effect). It counts as in vivo. On the procedure: The CNS depressant properties were investigated according to the Irwin method, and in particular, the anti-anxiety effect was evaluated on the basis of the secondary conditioned avoidance response test. A specific anti-anxiety effect was evidenced by administering to conditioned rats doses of 15-60 mg./kg. i.p. of representative compounds of the invention.
The following table indicates the ratio of the rats which were deconditioned after administration of a predetermined amount of a representative compound: […]

Setting [5] is: Table I, 5,6-dihydro compounds, hamsters.
Where [6] appears, read: Table II, 5,6-unsaturated compounds, similar experiments.

Regarding `CCCOc1cccc(-c2nc3n(n2)CCc2ccccc2-3)c1` [Example 14, 2-(m-propoxyphenyl)-5,6-dihydro-s-triazolo[5,1-a]isoquinoline], in series [1], the minimal effective dose was found to be 6.25 mg/kg. Also, the “anti-fertility activity (active according to criteria)” value (shortened to “anti-fertility activity”) in series [2] was “active”. Besides, in series [2] (setting [5]), the ED50 (commonly the dose at which the effect has come halfway, by size or by number of responders) amounted to 0.11 mg/kg. With `CC(=O)N(C(C)=O)c1nc2n(n1)CCc1ccccc1-2` [Example 34, 2-Diacetylamino-5,6-dihydro-s-triazolo[5,1-a]isoquinoline], the LD50 – broadly, the dose at which mortality reaches 50% – in series [3] is above 600 mg/kg. In addition, the Deconditioned/treated in series [4] (dose 60 mg./kg. i.p.) is given as 6/9. On to `Oc1cccc(-c2nc3n(n2)CCc2ccccc2-3)c1` [Example 42, 2-(3-Hydroxyphenyl)-5,6-dihydro-s-triazolo[5,1-a]isoquinoline], for which the “anti-fertility activity” value in series [2] was “active”. For the compound `CN(C)c1cccc(-c2nc3n(n2)CCc2ccccc2-3)c1` [Example 41, 2-(m-Dimethylaminophenyl)-5,6-dihydro-s-triazolo[5,1-a]isoquinoline], the “anti-fertility activity” value in series [2] is “active”. In series [3], `N=C(NN1CCc2ccccc2C1=O)c1ccccc1` [2-Benzimidoylamino-3,4-dihydro-1 (2H)-isoquinolinone] came in with a 50% lethal dose (LD50) above 600 mg/kg. Further, the Deconditioned/treated in series [4] (dose 60 mg./kg. i.p.) is 10/10. For the compound `CN(C)c1ccc(-c2nc3n(n2)CCc2ccccc2-3)cc1` [Example 27, 2-(p-dimethylaaminophenyl)-5,6-dihydro-s-triazolo[5,1-a]isoquinoline], in series [2], the “anti-fertility activity” value is reported as “active”. Same read-out and setting: next, `Fc1cccc(-c2nc3n(n2)CCc2ccccc2-3)c1` [Example 19, 2-(m-fluorophenyl)-5,6-dihydro-s-triazolo[5,1-a]isoquinoline]: “active”. For the compound `Nc1nc2n(n1)CCc1ccccc1-2` [Example 32], the 50% lethal dose (LD50) in series [3] is above 600 mg/kg. In addition, the Deconditioned/treated in series [4] (dose 30 mg./kg. i.p.) is on record as 6/10. In the case of `CC(=O)Nc1nc2n(n1)CCc1ccccc1-2` [Example 35, 2-Acetamido-5,6-dihydro-s-triazolo[5,1-a]isoquinoline], the 50% lethal dose (LD50) in series [3] was above 400 mg/kg. Further, in series [4] (dose 60 mg./kg. i.p.), the Deconditioned/treated was 7/10. On to `c1cncc(-c2nc3n(n2)CCc2ccccc2-3)c1` [Example 10, 2-(3-pyridyl)-5,6-dihydro-s-triazolo[5,1-a]isoquinoline], for which the LD50 in series [3] is above 400 mg/kg. In series [4] (dose 15 mg./kg. i.p.), the Deconditioned/treated was 10/10. For the compound `Clc1ccc(-c2nc3n(n2)CCc2ccccc2-3)cc1` [Example 8, 2-(p-chlorophenyl)-5,6-dihydro-s-triazolo[5,1-a]isoquinoline], the “anti-fertility activity” value in series [2] was “active”. The median effective dose (ED50) in series [2] (setting [5]) worked out at 0.065 mg/kg. In the case of `N=C(NN1CCc2ccccc2C1=O)c1cccc([N+](=O)[O-])c1` [2-(m-Nitrobenzimidoylamino)-3,4-dihydro-1-(2H) isoquinolinone], the LD50 in series [3] is above 600 mg/kg. In addition, the Deconditioned/treated in series [4] (dose 30 mg./kg. i.p.) is 6/10; in series [4] (dose 60 mg./kg. i.p.), 10/10.

With `COc1cccc(-c2nc3c4ccccc4ccn3n2)c1` [Example 58, 2-(m-Methoxyphenyl)-s-triazolo[5,1-a]isoquinoline], in series [2], the “anti-fertility activity” value is listed as “active”. In series [2] (setting [6]), the ED50 was 0.1 mg/kg.

On to `CC(C)Oc1cccc(-c2nc3n(n2)CCc2ccccc2-3)c1` [Example 21, 2-(m-isopropoxyphenyl)-5,6-dihydro-s-triazolo[5,1-a]isoquinoline], for which the “anti-fertility activity” value in series [2] is given as “active”. Moreover, in series [2] (setting [5]), the ED50 came out at 0.25 mg/kg.

For the compound `COc1cccc(-c2nc3n(n2)CCc2ccccc2-3)c1` [Example 1, 2-(m-Methoxyphenyl)-5,6-dihydro-s-triazolo[5,1-a]isoquinoline], in series [1], the minimal effective dose was 12.5 mg/kg. Also, the “anti-fertility activity” value in series [2] is “active”. In series [2] (setting [5]), the median effective dose (ED50) was found to be 0.1 mg/kg. Regarding `Cc1ccccc1-c1nc2n(n1)CCc1ccccc1-2` [Example 2, 2-(o-toluyl)-5,6-dihydro-s-triazolo[5,1-a]isoquinoline, reference compound], in series [2] (setting [5]), the ED50 was above 10 mg/kg. Turning to `c1ccc(COc2cccc(-c3nc4n(n3)CCc3ccccc3-4)c2)cc1` [Example 15, 2-(m-benzyloxyphenyl)-5,6-dihydro-s-triazolo[5,1-a]isoquinoline], in series [2], the “anti-fertility activity” value is on record as “active”. For `C#CCOc1cccc(-c2nc3n(n2)CCc2ccccc2-3)c1` [Example 25, 2-(m-propargyloxyphenyl)-5,6-dihydro-s-triazolo[5,1-a]isoquinoline], the “anti-fertility activity” value in series [2] is reported as “active”. Besides, the median effective dose (ED50) in series [2] (setting [5]) was 0.21 mg/kg. With `c1cc(OC2CCCC2)cc(-c2nc3n(n2)CCc2ccccc2-3)c1` [Example 23, 2-(m-cyclopentyloxyphenyl)-5,6-dihydro-s-triazolo[5,1-a]isoquinoline], the “anti-fertility activity” value in series [2] is listed as “active”. As to `c1ccc(-c2nc3c4ccccc4ccn3n2)cc1` [Example 59, 2-Phenyl-s-triazolo[5,1-a]isoquinoline, reference compound], in series [2] (setting [6]), the ED50 was 0.25 mg/kg. In the case of `Cc1ccc(-c2nc3n(n2)CCc2ccccc2-3)cc1` [Example 4, 2-(p-toluyl)-5,6-dihydro-s-triazolo[5,1-a]isoquinoline, reference compound], the ED50 in series [2] (setting [5]) stood at 2 mg/kg. Consider `Clc1ccc(-c2nc3c4ccccc4ccn3n2)cc1` [Example 61, 2-(p-Chlorophenyl)-s-triazolo[5,1-a]isoquinoline], for which, in series [2], the “anti-fertility activity” value is “active”. Further, the ED50 in series [2] (setting [6]) was found to be 0.08 mg/kg. Turning to `Fc1ccc(-c2nc3n(n2)CCc2ccccc2-3)cc1` [Example 28, 2-(p-fluorophenyl)-5,6-dihydro-s-triazolo[5,1-a]isoquinoline], in series [2], the “anti-fertility activity” value was “active”. Besides, the 50% effective dose (ED50) in series [2] (setting [5]) was 0.1 mg/kg. On to `CCOC(=O)NC(=S)Nc1nc2n(n1)CCc1ccccc1-2` [2-carbethoxythioureido-5,6-dihydro-s-triazole-[5,1-a]isoquinoline], for which the LD50 in series [3] was above 600 mg/kg. Moreover, the Deconditioned/treated in series [4] (dose 60 mg./kg. i.p.) is given as 7/10. Consider `COc1cc(OC)cc(-c2nc3n(n2)CCc2ccccc2-3)c1` [Example 12, 2-(3,5-dimethoxyphenyl)-5,6-dihydro-s-triazolo[5,1-a]isoquinoline], for which the “anti-fertility activity” value in series [2] is recorded as “active”. With `Cc1nc2n(n1)CCc1ccccc1-2` [Example 9, 2-methyl-5,6-dihydro-s-triazolo[5,1-a]isoquinoline, reference compound], the 50% effective dose (ED50) in series [2] (setting [5]) is above 10 mg/kg. With `c1ccc2c(c1)CCn1nc(-c3ccc4c(c3)OCO4)nc1-2` [Example 16, 2-(3,4-methylenedioxyphenyl)-5,6-dihydro-s-triazolo[5,1-a]isoquinoline], in series [2], the “anti-fertility activity” value is “active”. Turning to `c1ccc(-c2nc3n(n2)CCc2ccccc2-3)cc1` [Example 5, 2-phenyl-5,6-dihydro-s-triazolo[5,1-a]isoquinoline, reference compound], the median effective dose (ED50) in series [2] (setting [5]) amounted to 1 mg/kg.

On to `CCCCCOc1cccc(-c2nc3n(n2)CCc2ccccc2-3)c1` [Example 22, 2-(m-pentyloxyphenyl)-5,6-dihydro-s-triazolo[5,1-a]isoquinoline], for which, in series [2], the “anti-fertility activity” value was “active”. In the case of `Clc1cccc(-c2nc3n(n2)CCc2ccccc2-3)c1` [Example 7, 2-(m-chlorophenyl)-5,6-dihydro-s-triazolo[5,1-a]isoquinoline], the “anti-fertility activity” value in series [2] is reported as “active”. In addition, the median effective dose (ED50) in series [2] (setting [5]) amounted to 0.75 mg/kg. As to `Cc1cccc(-c2nc3n(n2)CCc2ccccc2-3)c1` [Example 3, 2-(m-toluyl)-5,6-dihydro-s-triazolo[5,1-a]isoquinoline, reference compound], in series [2] (setting [5]), the median effective dose (ED50) was above 10 mg/kg. As for `CCCCOc1cccc(-c2nc3n(n2)CCc2ccccc2-3)c1` [Example 31, 2-(m-butoxyphenyl)-5,6-dihydro-s-triazolo[5,1-a]isoquinoline], the “anti-fertility activity” value in series [2] is “active”.
